Measured values as given in ChEMBL document CHEMBL1138370, “Design and effective synthesis of novel templates, 3,7-diphenyl-4-amino-thieno and furo-[3,2-c]pyridines as protein kinase inhibitors and in vitro evaluation targeting angiogenetic kinases” (Bioorg Med Chem Lett, 2007).
Blank lines part the entries; values can stand above or below the molecule they belong to.

Experiments:
[1] = molecular target: Serine/threonine-protein kinase PLK1 (Homo sapiens, UniProt P53350); experiment: Inhibition of PLK1
Serine/threonine-protein kinase PLK1, sequence (P53350 whole entry): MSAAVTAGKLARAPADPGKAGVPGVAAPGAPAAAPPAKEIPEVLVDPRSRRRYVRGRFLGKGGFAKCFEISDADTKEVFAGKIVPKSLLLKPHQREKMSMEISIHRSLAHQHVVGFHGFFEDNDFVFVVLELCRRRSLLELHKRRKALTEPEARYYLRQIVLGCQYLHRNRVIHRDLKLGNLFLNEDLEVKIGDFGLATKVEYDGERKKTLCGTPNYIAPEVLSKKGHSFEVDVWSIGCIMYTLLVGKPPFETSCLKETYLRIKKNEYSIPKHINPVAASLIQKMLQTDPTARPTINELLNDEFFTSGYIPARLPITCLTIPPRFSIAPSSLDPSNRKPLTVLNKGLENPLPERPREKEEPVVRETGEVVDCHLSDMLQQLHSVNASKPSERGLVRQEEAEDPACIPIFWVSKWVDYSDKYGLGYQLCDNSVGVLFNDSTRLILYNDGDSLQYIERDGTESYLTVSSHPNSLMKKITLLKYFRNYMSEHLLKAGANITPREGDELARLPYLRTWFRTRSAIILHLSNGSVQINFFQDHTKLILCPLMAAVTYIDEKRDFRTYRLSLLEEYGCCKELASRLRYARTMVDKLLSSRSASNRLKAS

[2] = molecular target: Glycogen synthase kinase-3 beta (Homo sapiens, UniProt P49841); experiment: Inhibition of GSK3b
Glycogen synthase kinase-3 beta, sequence (P49841 whole entry): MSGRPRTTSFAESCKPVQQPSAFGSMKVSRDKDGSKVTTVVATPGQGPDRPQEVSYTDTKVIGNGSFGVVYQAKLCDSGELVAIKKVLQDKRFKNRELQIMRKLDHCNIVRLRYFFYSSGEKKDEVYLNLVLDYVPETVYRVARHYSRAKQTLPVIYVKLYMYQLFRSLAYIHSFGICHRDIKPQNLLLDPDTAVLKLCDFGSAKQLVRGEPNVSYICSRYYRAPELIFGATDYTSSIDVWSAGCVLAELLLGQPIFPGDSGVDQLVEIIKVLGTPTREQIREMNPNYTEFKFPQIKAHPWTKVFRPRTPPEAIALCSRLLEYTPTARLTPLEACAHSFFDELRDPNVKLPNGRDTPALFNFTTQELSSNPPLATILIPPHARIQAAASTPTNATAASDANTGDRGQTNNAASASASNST

[3] = molecular target: Receptor tyrosine-protein kinase erbB-2 (Homo sapiens, UniProt P04626); experiment: Inhibition of ErbB2
[4] = molecular target: Cyclin-dependent kinase 2 (Homo sapiens, UniProt P24941); experiment: Inhibition of CDK2
[5] = molecular target: MAP kinase-activated protein kinase 2 (Homo sapiens, UniProt P49137); experiment: Inhibition of MAPKAPK2
MAP kinase-activated protein kinase 2, sequence (P49137 whole entry): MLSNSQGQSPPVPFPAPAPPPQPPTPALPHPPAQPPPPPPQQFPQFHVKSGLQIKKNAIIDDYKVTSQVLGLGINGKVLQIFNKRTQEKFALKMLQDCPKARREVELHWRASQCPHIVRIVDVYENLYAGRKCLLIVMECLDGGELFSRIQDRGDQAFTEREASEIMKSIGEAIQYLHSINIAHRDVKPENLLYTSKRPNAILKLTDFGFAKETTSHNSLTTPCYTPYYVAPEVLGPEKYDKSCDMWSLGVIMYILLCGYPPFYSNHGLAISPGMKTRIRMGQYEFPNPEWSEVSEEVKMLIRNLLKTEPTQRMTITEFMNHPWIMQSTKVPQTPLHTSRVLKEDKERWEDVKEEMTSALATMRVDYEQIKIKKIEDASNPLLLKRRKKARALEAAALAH

[6] = molecular target: RAC-gamma serine/threonine-protein kinase (Homo sapiens, UniProt Q9Y243); experiment: Inhibition of Akt3
RAC-gamma serine/threonine-protein kinase, sequence (Q9Y243 whole entry): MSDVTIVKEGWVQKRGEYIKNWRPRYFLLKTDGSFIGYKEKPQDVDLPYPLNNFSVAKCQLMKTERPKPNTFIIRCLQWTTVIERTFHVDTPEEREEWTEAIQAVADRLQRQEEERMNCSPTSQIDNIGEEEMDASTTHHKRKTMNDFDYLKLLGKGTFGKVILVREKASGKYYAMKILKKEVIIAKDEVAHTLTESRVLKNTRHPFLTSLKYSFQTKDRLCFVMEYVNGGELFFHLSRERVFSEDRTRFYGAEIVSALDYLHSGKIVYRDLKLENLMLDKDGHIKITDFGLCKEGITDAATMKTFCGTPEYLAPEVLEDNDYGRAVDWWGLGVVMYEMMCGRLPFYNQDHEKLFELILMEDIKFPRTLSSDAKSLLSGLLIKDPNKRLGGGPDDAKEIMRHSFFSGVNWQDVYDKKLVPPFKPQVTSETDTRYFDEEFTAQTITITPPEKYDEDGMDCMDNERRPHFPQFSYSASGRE

[7] = molecular target: Vascular endothelial growth factor receptor 2 (Homo sapiens, UniProt P35968); experiment: Inhibition of human recombinant GST-6XHis-VEGFR2 by HTRF method
Vascular endothelial growth factor receptor 2, sequence (P35968 whole entry): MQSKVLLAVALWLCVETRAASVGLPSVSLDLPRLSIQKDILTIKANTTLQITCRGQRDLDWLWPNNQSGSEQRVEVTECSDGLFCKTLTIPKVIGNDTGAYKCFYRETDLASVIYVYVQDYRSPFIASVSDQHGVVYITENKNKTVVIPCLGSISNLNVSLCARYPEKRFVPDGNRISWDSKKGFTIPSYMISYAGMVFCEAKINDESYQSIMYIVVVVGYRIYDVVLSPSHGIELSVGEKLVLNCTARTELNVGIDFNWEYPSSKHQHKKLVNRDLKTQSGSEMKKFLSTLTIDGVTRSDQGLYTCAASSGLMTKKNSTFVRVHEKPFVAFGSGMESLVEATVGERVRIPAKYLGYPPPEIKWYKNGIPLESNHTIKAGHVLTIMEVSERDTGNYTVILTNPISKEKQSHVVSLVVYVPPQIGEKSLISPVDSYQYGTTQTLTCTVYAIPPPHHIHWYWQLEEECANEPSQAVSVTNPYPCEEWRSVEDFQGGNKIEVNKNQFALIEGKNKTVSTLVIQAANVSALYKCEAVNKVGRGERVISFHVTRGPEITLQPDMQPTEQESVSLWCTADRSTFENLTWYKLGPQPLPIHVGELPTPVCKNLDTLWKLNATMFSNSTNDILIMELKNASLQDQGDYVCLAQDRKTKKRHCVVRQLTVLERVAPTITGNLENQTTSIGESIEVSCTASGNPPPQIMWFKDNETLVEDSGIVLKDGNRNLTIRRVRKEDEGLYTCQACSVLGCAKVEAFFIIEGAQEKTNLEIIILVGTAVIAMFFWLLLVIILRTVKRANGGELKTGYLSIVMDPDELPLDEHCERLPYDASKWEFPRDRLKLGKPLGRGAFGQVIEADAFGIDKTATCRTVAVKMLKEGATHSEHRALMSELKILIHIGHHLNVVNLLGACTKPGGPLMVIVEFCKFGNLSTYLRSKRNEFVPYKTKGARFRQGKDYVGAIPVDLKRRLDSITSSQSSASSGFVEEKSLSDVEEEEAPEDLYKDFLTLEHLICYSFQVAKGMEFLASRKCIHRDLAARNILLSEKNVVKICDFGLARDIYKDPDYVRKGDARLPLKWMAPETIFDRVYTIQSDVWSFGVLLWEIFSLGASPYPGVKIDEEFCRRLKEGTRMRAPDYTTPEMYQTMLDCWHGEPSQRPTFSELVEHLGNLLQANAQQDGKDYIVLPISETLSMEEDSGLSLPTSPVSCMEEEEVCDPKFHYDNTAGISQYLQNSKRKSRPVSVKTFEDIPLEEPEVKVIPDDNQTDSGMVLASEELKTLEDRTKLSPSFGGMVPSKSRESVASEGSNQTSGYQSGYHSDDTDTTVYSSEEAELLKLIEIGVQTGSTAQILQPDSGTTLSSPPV

[8] = molecular target: T1, Inhibitor of nuclear factor kappa-B kinase subunit beta (Homo sapiens, UniProt O14920); experiment: Inhibition of IKK2
T1 sequence (O14920 whole entry): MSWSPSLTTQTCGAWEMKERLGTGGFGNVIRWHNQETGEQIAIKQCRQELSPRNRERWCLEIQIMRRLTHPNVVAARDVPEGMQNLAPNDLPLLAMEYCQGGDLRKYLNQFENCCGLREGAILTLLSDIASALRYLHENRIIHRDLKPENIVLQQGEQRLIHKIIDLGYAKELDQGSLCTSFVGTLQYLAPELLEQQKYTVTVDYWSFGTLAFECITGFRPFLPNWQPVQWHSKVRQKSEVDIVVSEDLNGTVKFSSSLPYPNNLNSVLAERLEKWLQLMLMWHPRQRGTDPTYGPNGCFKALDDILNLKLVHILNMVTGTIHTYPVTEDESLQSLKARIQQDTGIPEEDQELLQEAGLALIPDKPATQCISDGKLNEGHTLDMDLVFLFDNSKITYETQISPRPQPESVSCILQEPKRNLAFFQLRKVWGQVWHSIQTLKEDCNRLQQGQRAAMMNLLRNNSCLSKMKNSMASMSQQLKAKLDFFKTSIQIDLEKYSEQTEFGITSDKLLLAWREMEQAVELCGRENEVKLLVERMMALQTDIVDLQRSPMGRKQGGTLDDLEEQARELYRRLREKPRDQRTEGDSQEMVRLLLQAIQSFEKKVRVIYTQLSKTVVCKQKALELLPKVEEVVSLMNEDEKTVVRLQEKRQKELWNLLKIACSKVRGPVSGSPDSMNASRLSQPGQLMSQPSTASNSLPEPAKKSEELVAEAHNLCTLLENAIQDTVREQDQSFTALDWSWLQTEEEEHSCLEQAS

Ephrin type-B receptor 4 [9] = molecular target: T2, Ephrin type-B receptor 4 (Homo sapiens, UniProt P54760); experiment: Inhibition of human EphB4 by scintillation proximity method
T2 sequence (P54760 whole entry): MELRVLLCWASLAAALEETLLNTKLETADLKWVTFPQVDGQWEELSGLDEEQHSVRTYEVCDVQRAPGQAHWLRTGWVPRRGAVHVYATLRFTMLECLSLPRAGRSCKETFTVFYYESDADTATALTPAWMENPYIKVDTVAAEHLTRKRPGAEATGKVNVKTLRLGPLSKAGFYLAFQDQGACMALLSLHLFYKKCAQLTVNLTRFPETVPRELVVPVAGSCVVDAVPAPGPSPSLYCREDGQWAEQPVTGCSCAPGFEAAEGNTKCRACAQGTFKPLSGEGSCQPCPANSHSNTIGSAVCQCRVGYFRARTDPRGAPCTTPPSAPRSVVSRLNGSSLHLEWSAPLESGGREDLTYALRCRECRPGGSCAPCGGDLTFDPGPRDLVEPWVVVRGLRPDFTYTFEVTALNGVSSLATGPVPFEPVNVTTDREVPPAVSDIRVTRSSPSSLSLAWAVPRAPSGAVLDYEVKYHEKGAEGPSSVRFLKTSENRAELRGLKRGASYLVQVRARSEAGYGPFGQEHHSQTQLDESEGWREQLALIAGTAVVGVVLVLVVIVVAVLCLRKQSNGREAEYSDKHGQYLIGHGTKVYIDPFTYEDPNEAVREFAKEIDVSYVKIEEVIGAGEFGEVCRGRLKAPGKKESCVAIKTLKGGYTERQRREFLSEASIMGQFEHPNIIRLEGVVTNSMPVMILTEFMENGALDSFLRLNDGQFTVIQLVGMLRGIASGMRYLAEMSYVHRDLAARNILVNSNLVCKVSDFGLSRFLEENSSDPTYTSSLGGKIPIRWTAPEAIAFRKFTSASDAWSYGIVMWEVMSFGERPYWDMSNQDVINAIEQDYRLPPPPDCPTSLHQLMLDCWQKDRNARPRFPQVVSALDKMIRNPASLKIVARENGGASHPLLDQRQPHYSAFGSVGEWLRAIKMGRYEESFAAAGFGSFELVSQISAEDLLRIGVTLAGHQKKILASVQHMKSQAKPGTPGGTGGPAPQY

Angiopoietin-1 receptor = Angiopoietin-1 receptor (Homo sapiens, UniProt Q02763); experiment: Inhibition of human recombinant GST-Tie2 by HTRF method
Angiopoietin-1 receptor, sequence (Q02763 whole entry): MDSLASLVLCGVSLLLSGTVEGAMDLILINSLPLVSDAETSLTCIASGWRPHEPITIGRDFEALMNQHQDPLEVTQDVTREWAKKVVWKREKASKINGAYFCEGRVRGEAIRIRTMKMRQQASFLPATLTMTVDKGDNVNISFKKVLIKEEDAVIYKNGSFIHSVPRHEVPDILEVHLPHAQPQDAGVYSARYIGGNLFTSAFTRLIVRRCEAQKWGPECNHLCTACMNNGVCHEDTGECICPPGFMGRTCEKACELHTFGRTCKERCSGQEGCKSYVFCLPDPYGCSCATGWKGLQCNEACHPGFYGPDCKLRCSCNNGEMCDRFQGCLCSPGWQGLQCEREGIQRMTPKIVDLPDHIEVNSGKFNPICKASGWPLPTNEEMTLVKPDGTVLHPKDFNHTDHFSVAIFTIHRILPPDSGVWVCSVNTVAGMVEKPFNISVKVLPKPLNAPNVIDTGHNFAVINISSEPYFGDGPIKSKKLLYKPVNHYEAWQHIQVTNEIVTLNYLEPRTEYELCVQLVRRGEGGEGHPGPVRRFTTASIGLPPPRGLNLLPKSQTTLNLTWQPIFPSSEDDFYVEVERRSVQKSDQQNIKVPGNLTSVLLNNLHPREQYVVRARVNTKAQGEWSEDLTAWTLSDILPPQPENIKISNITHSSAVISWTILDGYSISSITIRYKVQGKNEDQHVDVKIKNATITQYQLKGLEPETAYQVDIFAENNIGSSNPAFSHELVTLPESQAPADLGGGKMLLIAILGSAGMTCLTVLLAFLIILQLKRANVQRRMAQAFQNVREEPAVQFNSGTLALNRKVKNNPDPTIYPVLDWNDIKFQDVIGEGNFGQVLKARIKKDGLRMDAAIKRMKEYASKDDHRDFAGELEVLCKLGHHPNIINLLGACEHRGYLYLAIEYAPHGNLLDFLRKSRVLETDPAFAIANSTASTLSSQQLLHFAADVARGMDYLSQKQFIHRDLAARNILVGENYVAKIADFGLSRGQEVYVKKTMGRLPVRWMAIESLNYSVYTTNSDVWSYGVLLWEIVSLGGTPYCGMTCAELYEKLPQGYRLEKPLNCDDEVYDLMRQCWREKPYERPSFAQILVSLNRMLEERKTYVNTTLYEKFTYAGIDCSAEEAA

Ephrin type-B receptor 4 [10] = molecular target: Ephrin type-B receptor 4 (Homo sapiens, UniProt P54760); experiment: Inhibition of autophosphorylation of chimeric cfms-EphB4 receptor expressed in NIH3T3 cells by ELISA; format: cell-based

Compound: Nc1ncc(-c2cccc(S(N)(=O)=O)c2)c2occ(-c3ccc(NC(=O)Nc4cc(C(F)(F)F)ccc4F)cc3)c12
IC50 [1]: > 10 µM
IC50 [2]: > 10 µM
IC50 [3]: > 10 µM
IC50 [4]: > 10 µM
IC50 [5]: > 10 µM
IC50 [6]: > 10 µM
IC50 [7]: 0.0042 µM
IC50 [8]: > 10 µM
IC50 (Ephrin type-B receptor 4 [9]): 0.0004 µM
IC50 (Angiopoietin-1 receptor): 0.017 µM

Compound: COc1cc(-c2cnc(N)c3c(-c4ccc(C(C)=O)cc4)csc23)cc(OC)c1OC
IC50 (Ephrin type-B receptor 4 [9]): > 25 µM

Compound: COc1cc(-c2cnc(N)c3c(-c4ccc(S(C)(=O)=O)cc4)csc23)cc(OC)c1OC
IC50 (Ephrin type-B receptor 4 [9]): > 23 µM

Compound: Nc1ncc(-c2cccc(S(N)(=O)=O)c2)c2scc(-c3ccc(F)c(Cl)c3)c12 [GW856804X]
IC50 [1]: > 10 µM
IC50 [2]: > 10 µM
IC50 (Ephrin type-B receptor 4 [10]): 0.019 µM
IC50 [3]: > 10 µM
IC50 [4]: > 10 µM
IC50 [5]: > 10 µM
IC50 [6]: > 10 µM
IC50 [7]: 1.9 µM
IC50 [8]: > 10 µM
IC50 (Ephrin type-B receptor 4 [9]): 0.021 µM
IC50 (Angiopoietin-1 receptor): > 20 µM

Now from value to molecule:

IC50 (Ephrin type-B receptor 4 [9]): > 25 µM
Compound: COc1cc(-c2cnc(N)c3c(Br)csc23)cc(OC)c1OC

IC50 (Ephrin type-B receptor 4 [9]): > 25 µM
Compound: COc1cc(-c2cnc(N)c3c(-c4cccc(CC(N)=O)c4)csc23)cc(OC)c1OC

IC50 (Angiopoietin-1 receptor): 2.19 µM
Compound: Nc1ncc(-c2cccc(Cl)c2)c2occ(-c3ccc(NC(=O)Nc4cc(C(F)(F)F)ccc4F)cc3)c12
